5 compounds from US10259811B2, “Tank-binding kinase inhibitor compounds” (Gilead Sciences, Inc., priority 2014, dated 2019) can be followed below.

One assay deals with IKKε (Homo sapiens (Human), UniProt Q14164). The experiment in a line: TR-FRET enzymatic assay, phosphorylation of biotinylated serine/threonine peptide substrate (IKKε). As to conditions: full length recombinant IKKε at 0.3 nM, 2×Km ATP (40-80 μM), 1 μM peptide, 240 minutes at 25° C.; geometric mean of minimum four determinations. Format: biochemical. The text has this: Biological Assay for TBK1 and IKKε:

The target in the next assay is TBK1 (Homo sapiens (Human), UniProt Q9UHD2). Briefly: TR-FRET enzymatic assay, phosphorylation of biotinylated serine/threonine peptide substrate (TBK1). Particulars: read-out: TBK1-IC50; full length recombinant TBK1, 2×Km ATP (40-80 μM), 1 μM peptide, 240 minutes at 25° C.; geometric mean of minimum four determinations. (In general: In TR-FRET formats the signal depends on donor and acceptor labels being close together.)
TBK1, sequence (Q9UHD2 whole entry): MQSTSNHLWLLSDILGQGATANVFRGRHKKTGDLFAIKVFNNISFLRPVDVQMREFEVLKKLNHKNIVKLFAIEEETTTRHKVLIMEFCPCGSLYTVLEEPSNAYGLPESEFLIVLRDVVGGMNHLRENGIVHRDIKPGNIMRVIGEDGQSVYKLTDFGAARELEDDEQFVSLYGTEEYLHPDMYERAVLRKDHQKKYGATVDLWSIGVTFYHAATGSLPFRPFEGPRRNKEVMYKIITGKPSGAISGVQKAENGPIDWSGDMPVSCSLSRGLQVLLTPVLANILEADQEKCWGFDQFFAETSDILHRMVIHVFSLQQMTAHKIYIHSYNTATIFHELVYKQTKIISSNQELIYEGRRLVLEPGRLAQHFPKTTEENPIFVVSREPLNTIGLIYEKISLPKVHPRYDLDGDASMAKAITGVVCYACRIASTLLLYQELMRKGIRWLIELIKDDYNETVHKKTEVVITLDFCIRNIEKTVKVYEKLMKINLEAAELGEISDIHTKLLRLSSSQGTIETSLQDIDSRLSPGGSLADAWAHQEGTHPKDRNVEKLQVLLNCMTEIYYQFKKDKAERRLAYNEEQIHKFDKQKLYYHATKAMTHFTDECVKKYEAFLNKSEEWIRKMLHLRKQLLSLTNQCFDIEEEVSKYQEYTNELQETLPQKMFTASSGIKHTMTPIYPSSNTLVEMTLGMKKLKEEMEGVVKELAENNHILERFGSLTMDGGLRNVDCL

IKKε, sequence (Q14164 whole entry): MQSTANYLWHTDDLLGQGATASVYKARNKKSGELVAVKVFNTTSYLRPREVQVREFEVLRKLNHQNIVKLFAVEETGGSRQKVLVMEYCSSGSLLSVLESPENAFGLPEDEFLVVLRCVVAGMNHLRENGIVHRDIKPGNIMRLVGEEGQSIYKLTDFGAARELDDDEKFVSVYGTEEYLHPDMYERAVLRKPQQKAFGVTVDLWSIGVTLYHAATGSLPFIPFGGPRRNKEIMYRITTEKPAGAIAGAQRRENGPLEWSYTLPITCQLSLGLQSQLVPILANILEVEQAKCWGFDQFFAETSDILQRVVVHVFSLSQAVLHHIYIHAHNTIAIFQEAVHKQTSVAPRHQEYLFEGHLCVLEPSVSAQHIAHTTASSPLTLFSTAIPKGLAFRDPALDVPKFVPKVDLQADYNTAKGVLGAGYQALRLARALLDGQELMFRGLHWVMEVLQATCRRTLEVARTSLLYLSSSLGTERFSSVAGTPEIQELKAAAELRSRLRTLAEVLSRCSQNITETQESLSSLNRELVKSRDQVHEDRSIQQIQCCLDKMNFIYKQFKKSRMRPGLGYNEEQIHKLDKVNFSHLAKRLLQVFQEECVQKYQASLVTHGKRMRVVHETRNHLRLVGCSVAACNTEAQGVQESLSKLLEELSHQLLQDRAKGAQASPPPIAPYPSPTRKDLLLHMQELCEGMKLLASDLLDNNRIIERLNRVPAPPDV
Description for TBK1: Enzymatic activity of IKKε and TBK1 was measured using a homogeneous time resolved fluorescence resonance energy transfer (TR-FRET) assay that monitors enzyme dependent phosphorylation of a biotinylated serine/threonine peptide substrate. […] TBK1 and IKKε were expressed and purified as full length recombinant proteins. Detection reagents for the assay were purchased from Cisbio. […] After an assay reaction time of 240 minutes at 25° C., reactions were terminated with EDTA.
Amount of phosphorylated peptide was determined by the addition of 125 nM streptavidin XL665 and europium cryptate labeled anti-phospho monoclonal antibody and the resulting TR-FRET signal was recorded on an Envision plate reader (Ex: 340 nm; Em: 615/665 nm; 100 μs delay and 200 μs read window). […] All IC50 values represent geometric mean values of a minimum of four determinations.

In the case of “5-(6-(1,4-dioxaspiro[4.5]dec-7-en-8-yl)-7H-pyrrolo[2,3-d]pyrimidin-4-yl)-2-((1-(2-hydroxyacetyl)piperidin-4-yl)oxy)benzonitrile [Example 175]”, the IC50 – broadly, the concentration at which inhibition is half-maximal – on IKKε was determined as 5.84 nM.
With “5-(6-(4-(4-(2,2-difluoroethyl)piperazin-1-yl)phenyl)-7H-pyrrolo[2,3-d]pyrimidin-4-yl)-2-((1-(2-hydroxyacetyl)piperidin-4-yl)oxy)benzonitrile [Example 264]”, the IC50 on TBK1 turned out to be 0.91 nM.
As for “5-(6-(4-(4-(2,2-difluoroethyl)piperazin-1-yl)phenyl)-7H-pyrrolo[2,3-d]pyrimidin-4-yl)-2-(piperidin-4-yloxy)benzonitrile [Example 265]”, the values for the IC50 at IKKε and at TBK1 were 58.7 nM and 16.2 nM, respectively.
Taken in the same sequence, the figures for `Cc1nc(-c2ccc(OC3CCOCC3)c(C#N)c2)c2nc(-c3ccc(N4CCOCC4)cc3)[nH]c2n1` [Example 214, 5-(2-methyl-8-(4-morpholinophenyl)-9H-purin-6-yl)-2-((tetrahydro-2H-pyran-4-yl)oxy)benzonitrile] were over 1000 nM and over 1000 nM.
Taken in the same sequence, the figures for `N#Cc1cc(-c2ncnc3[nH]c(-c4ccc(N5CCOCC5)c(F)c4)nc23)ccc1OC1CCN(C(=O)CO)CC1` [Example 241, 5-(8-(3-fluoro-4-morpholinophenyl)-9H-purin-6-yl)-2-((1-(2-hydroxyacetyl)piperidin-4-yl)oxy)benzonitrile] were 1.3 nM and 2.64 nM.
